Test systems include MALME-3M melanoma; NCI/ADR-RES ovarian; COLO 205 colon; T-47D breast; SNB-75 CNS; UACC-62 melanoma; LOX IMVI melanoma; UACC-257 melanoma; MCF7 breast; 786-0 renal.
Holding throughout (assay): growth of human tumour cells (NCI), 48 h

Each structure is given as a SMILES string.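 Assay format: 96-well plates, 48-hour exposure. TGI marks complete inhibition of growth.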 Where a SMILES comes first, the peptide text is derived from it. [ ]: non-standard residue; d: D form. The star is where a group is joined. ξ: configuration not given here. X28 = COC1=CC(=O)N(C(=O)[C@@H](O*)C(C)C)[C@H]1Cc1ccccc1; X37 = O=C(OCc1ccccc1)[C@@H]1CCC[C@H]1N*; Fmoc = O=C(OCC1c2ccccc2-c2ccccc21)*; ξW = NC(Cc1c[nH]c2ccccc12)C(=O)O; NMeL = CN[C@@H](CC(C)C)C(=O)O; ξF = NC(Cc1ccccc1)C(=O)O; Hexanoyl = CCCCCC(=O)*; Boc = CC(C)(C)OC(=O)*; ξK = NCCCCC(N)C(=O)O; ξT = CC(O)C(N)C(=O)O; OBn = c1ccc(CO*)cc1; Bn = c1ccc(C*)cc1; tBu = CC(C)(C)*

`COc1ccc(OC)c2c1C[C@@H]1C(C#N)N3[C@H](Cc4c(OC)ccc(OC)c4[C@@H]3C)C(=O)N1[C@H]2C` (stereo not given in full): the TGI in the experiment on MALME-3M melanoma was 8.61 µM; with NCI/ADR-RES ovarian, more than 100 µM; in the experiment on COLO 205 colon it was 3.52 µM; in the experiment with T-47D breast, 15.1 µM; in the experiment with SNB-75 CNS, 5.02 µM; in the experiment on UACC-62 melanoma it was 6.52 µM. Besides, the TGI in the experiment on LOX IMVI melanoma was found to be 5.95 µM; in the experiment with UACC-257 melanoma it was 6.96 µM; with MCF7 breast it was 17.5 µM; in the experiment on 786-0 renal, 7.72 µM.

For `CCCCCC(=O)N[C@H](C(=O)N[C@H](C(=O)N(C)[C@@H](CC(C)C)C(=O)N1CCC[C@H]1C(=O)N1CCC[C@H]1C(=O)O[C@H](C(=O)N1C(=O)C=C(OC)[C@@H]1Cc1ccccc1)C(C)C)C(C)C)C(C)C` (Hexanoyl-VV[NMeL]PP-X28), the TGI is more than 100 µM with MALME-3M melanoma; more than 100 µM in the experiment on NCI/ADR-RES ovarian; more than 100 µM with COLO 205 colon; more than 100 µM in the experiment on T-47D breast; 70.8 µM in the experiment with SNB-75 CNS; more than 100 µM with UACC-62 melanoma. For the same compound, the TGI in the experiment with LOX IMVI melanoma, in the experiment with UACC-257 melanoma, with MCF7 breast and in the experiment on 786-0 renal was more than 100 µM throughout.

As for `CC(OC(C)(C)C)C(NC(=O)C(CCCCNC(=O)OC(C)(C)C)NC(=O)C(Cc1c[nH]c2ccccc12)NC(=O)C(Cc1ccccc1)NC(=O)OCC1c2ccccc2-c2ccccc21)C(=O)NC(Cc1ccccc1)C(=O)N[C@@H]1CCC[C@H]1C(=O)OCc1ccccc1` (stereo not given in full) (Fmoc-[ξF][ξW][ξK](Boc)[ξT](tBu)[ξF]-X37), the TGI in the experiment on MALME-3M melanoma, in the experiment with NCI/ADR-RES ovarian, with COLO 205 colon, in the experiment on T-47D breast, in the experiment on SNB-75 CNS and in the experiment on UACC-62 melanoma was more than 100 µM each time. For the same compound, the TGI with LOX IMVI melanoma, in the experiment on UACC-257 melanoma, with MCF7 breast and in the experiment with 786-0 renal was more than 100 µM throughout.

Consider `Cc1[nH]n(C(=O)c2ccccc2O)c(=O)c1/C=C1\C(=O)C=Cc2ccccc21`, for which the TGI in the experiment with MALME-3M melanoma was 16.5 µM; with NCI/ADR-RES ovarian, 11 µM; with COLO 205 colon, 13.1 µM; with T-47D breast it was more than 100 µM; in the experiment with SNB-75 CNS, 10.4 µM; with UACC-62 melanoma, 2.36 µM. The TGI in the experiment with LOX IMVI melanoma came to 8.79 µM; in the experiment with UACC-257 melanoma it was 26.6 µM; in the experiment with MCF7 breast, 15.1 µM; in the experiment on 786-0 renal, 10.1 µM.

Turning to `NS(=O)(=O)c1ccc(CNC(=S)NC(=O)Nc2ccc(Cl)c(Cl)c2)cc1`, the TGI is 57.1 µM in the experiment on MALME-3M melanoma; 41.1 µM in the experiment with NCI/ADR-RES ovarian; 77.4 µM in the experiment on COLO 205 colon; 60.2 µM in the experiment with T-47D breast; 60.2 µM in the experiment on SNB-75 CNS; 29.3 µM in the experiment on UACC-62 melanoma. Besides, the TGI was 27.9 µM in the experiment on LOX IMVI melanoma, more than 100 µM with UACC-257 melanoma, 39 µM with MCF7 breast and 34.3 µM with 786-0 renal.

As for `C=C1C(=O)OC2C(C)C3C=CC(=O)[C@@]3(C)C(OC(=O)/C(C)=C/C)C1[C@@H]2OC(C)=O` (stereo not given in full), the TGI in the experiment on MALME-3M melanoma turned out to be 0.539 µM; in the experiment with NCI/ADR-RES ovarian, 0.73 µM; in the experiment on COLO 205 colon, 0.906 µM; in the experiment with T-47D breast, 2.13 µM; in the experiment with SNB-75 CNS, 2.98 µM; in the experiment on UACC-62 melanoma, 0.81 µM. Moreover, the TGI in the experiment on LOX IMVI melanoma was found to be 0.521 µM; in the experiment with UACC-257 melanoma, 1.66 µM; in the experiment on MCF7 breast, 1.37 µM; in the experiment with 786-0 renal it was 0.63 µM.

For `Cc1nc2c(=O)[nH]c(=O)nc-2n(CCO)c1C`, the TGI with MALME-3M melanoma, with NCI/ADR-RES ovarian, in the experiment with COLO 205 colon, with T-47D breast, with SNB-75 CNS and with UACC-62 melanoma was more than 100 µM each time. The TGI with LOX IMVI melanoma, in the experiment on UACC-257 melanoma, in the experiment with MCF7 breast and with 786-0 renal was more than 100 µM throughout.

`COC(=O)c1ccc(/C=C/C2=CC(=O)C=CC2=O)cc1`: the TGI in the experiment with MALME-3M melanoma is 36.9 µM; in the experiment on NCI/ADR-RES ovarian it was 97.9 µM; in the experiment with COLO 205 colon, more than 52.5 µM; in the experiment with T-47D breast, 33.5 µM; in the experiment with SNB-75 CNS, 99.4 µM; in the experiment with UACC-62 melanoma it was 40.2 µM. For the same compound, the TGI with LOX IMVI melanoma is 23.2 µM; in the experiment on UACC-257 melanoma it was 34.8 µM; in the experiment with MCF7 breast, 27.8 µM; with 786-0 renal, 26.1 µM.

Consider `CC(C)CC(NC(=O)C(Cc1ccccc1)NC(=O)C(COCc1ccccc1)NC(=O)OC(C)(C)C)C(=O)OCc1ccccc1` (stereo not drawn) (Boc-Ser(Bn)-Phe-Leu-OBn; configuration not given here), for which the TGI was more than 100 µM with MALME-3M melanoma; more than 100 µM in the experiment with NCI/ADR-RES ovarian; 43.9 µM in the experiment with COLO 205 colon; more than 100 µM with T-47D breast; 57.6 µM with SNB-75 CNS; 33 µM with UACC-62 melanoma. Besides, the TGI in the experiment on LOX IMVI melanoma was 40.1 µM; in the experiment with UACC-257 melanoma, more than 100 µM; with MCF7 breast, more than 100 µM; in the experiment on 786-0 renal, 30.8 µM.

Regarding `CC(=O)c1ccc2c(c1)CC1(C2)Cc2cc3c(cc2C1)C(=O)CC3` (stereo not given), the TGI in the experiment on MALME-3M melanoma is 25.7 µM; with NCI/ADR-RES ovarian, 17.2 µM; in the experiment on COLO 205 colon it was 1.66 µM; in the experiment with T-47D breast, 69.3 µM; in the experiment on SNB-75 CNS, more than 100 µM; with UACC-62 melanoma, 28.7 µM. Moreover, the TGI in the experiment on LOX IMVI melanoma stood at 28.8 µM; in the experiment with UACC-257 melanoma, 29.1 µM; in the experiment with MCF7 breast, 26.4 µM; in the experiment on 786-0 renal it was 20.9 µM.

`CC(=O)NC1C(OCC(=O)NC(C)C(=O)NC(CCC(=O)NCCCCCNc2ccc([N+](=O)[O-])c3[nH]c4ccccc4c(=O)c23)C(N)=O)C(O)C(CO)OC1(C)OCc1ccccc1` (stereo not given): the TGI in the experiment with MALME-3M melanoma is 26.9 µM; in the experiment with NCI/ADR-RES ovarian, more than 50 µM; in the experiment with COLO 205 colon it was more than 50 µM; in the experiment with T-47D breast, more than 50 µM; with SNB-75 CNS, more than 50 µM; in the experiment on UACC-62 melanoma it was more than 50 µM. Also, the TGI in the experiment on LOX IMVI melanoma, with UACC-257 melanoma, in the experiment on MCF7 breast and with 786-0 renal was more than 50 µM throughout.

With `CCCCN(CCCC)CC(=O)c1ccc2cc(Cl)c3ccccc3c2c1`, the TGI in the experiment with MALME-3M melanoma was more than 100 µM; with NCI/ADR-RES ovarian, more than 100 µM; in the experiment with COLO 205 colon, 34.1 µM; with T-47D breast, 76.6 µM; in the experiment with SNB-75 CNS, 67.3 µM; in the experiment on UACC-62 melanoma it was more than 100 µM. Further, the TGI in the experiment with LOX IMVI melanoma is more than 100 µM; in the experiment with UACC-257 melanoma, 98.9 µM; in the experiment on MCF7 breast, 92.3 µM; with 786-0 renal, more than 100 µM.

Values taken from PubChem BioAssay (NCI).
